Data set [1] addresses hERG potassium channel (Homo sapiens (Human), UniProt Q12809). Nature of the data set: Blocking effect on hERG potassium currents, manual patch-clamp in CHO cells stably expressing hERG channel. The data set is classed as cell-based. The note with it: read-out: IC50 for the blocking effect on the hERG potassium ion channel. The source says: This example is intended to assess the blocking effect of the compounds of the present disclosure and positive compound 1 (see the compound of Example 7 on page 125 of WO2019239319A1) on hERG potassium currents in a stable cell strain transfected with an hERG potassium channel by a manual patch-clamp assay. The structure of positive compound 1 is shown below:
The cells used in this experiment were from a CHO cell line (provided by Sophion Bioscience, Denmark) transfected with hERG cDNA and stably expressing hERG channel at cell passage number of P5. Cells were cultured in a medium containing the following components (all from Invitrogen): Ham's F12 medium, 10% (v/v) inactivated fetal bovine serum, 100 μg/mL hygromycin B, and 100 μg/mL geneticin.
CHO hERG cells were grown in a culture dish containing the above culture medium and cultured in an incubator at 37° C. with 5% CO2. 24-48 h before the electrophysiological experiment, CHO hERG cells were transferred to round slides placed in the culture dish and grown in the same culture medium and culture conditions as above. The density of CHO hERG cells on each round slide was required to achieve the requirement that most cells were independent and individual.
In this experiment, a manual patch-clamp system (HEKA EPC-10 signal amplifier and digital conversion system, purchased from HEKA Electronics, Germany) was used for whole cell current recording. Round slides with CHO hERG cells grown on the surface were placed in an electrophysiological recording chamber under an inverted microscope. The chamber was continuously perfused with extracellular fluid (approximately 1 mL/min). The experimental procedures were performed by conventional whole-cell patch-clamp current recording technology. Unless otherwise stated, the experiment was performed at room temperature ([…]). The cells were clamped at a voltage of −80 mV. The cell clamp voltage was depolarized to +20 mV to activate the hERG potassium channel, and then clamped to −50 mV 5 s later to eliminate inactivation and generate tail currents. The tail current peak was used as a value for the numeral value of the hERG current. After the hERG potassium currents recorded in the above step were stable under the continuous extracellular fluid perfusion in the recording chamber, the drug to be tested could be added for perfusion until the inhibitory effect of the drug on the hERG current reached a stable state. Generally, the last superposition of 3 consecutive current recording lines is used as a criterion for determining whether a stable state is reached. […]
The experimental data were analyzed by data analysis software supplied by HEKA Patchmaster(V2x73.2), Microsoft Excel, and Graphpad Prism 5.0. […]
(The hERG channel carries a current that helps repolarise heart muscle cells.)

For data set [2], the target named is CYP1A2 (Homo sapiens (Human), UniProt P05177). Nature of the data set: Inhibition of human liver microsome CYP450 enzyme, CYP1A2 phenacetin site. The note with it: human liver microsomes, probe substrate phenacetin. The data set is classed as in vitro ADME. The method, then: (§1) I. Materials and Instruments • 1. Phosphate buffered saline (20×PBS, purchased from Sangon); • 2. NADPH (ACROS, A2646-71-1); • 3. Human liver microsome (Corning Gentest, Cat No. 452161, Lot No. 905002, Donor35); • 4. ABI QTrap 4000 LC-MS System (AB Sciex); • 5. ZORBAX Extend-C18, 3×50 mm, 3.5 μm (Agilent, USA); • 6. CYP probe substrate.
(§2) An appropriate amount of human liver microsome stock solution (20 mg/mL) was diluted to obtain a 0.25 mg/mL microsome solution with 7.5 mM MgCl2 solution for later use (prepared right before use).
(§3) b. An appropriate amount of the stock solution was precisely pipetted, and diluted into series solution I at the concentrations of 10 mM, 3 mM, 1 mM, 0.3 mM, 0.03 mM and 0.003 mM with an appropriate amount of DMSO solution. An appropriate amount of the above series solution I was precisely pipetted, and diluted to obtain series solution II at the concentrations of 3 mM, 1 mM, 0.3 mM, 0.1 mM, 0.03 mM, 0.003 mM and 0.0003 mM with an appropriate amount of acetonitrile. An appropriate amount of the above series solution II was precisely pipetted, and diluted with PBS to obtain a working solution at the concentrations of 150 μM, 50 μM, 15 μM, 5 μM, 1.5 μM, 0.15 μM and 0.015 μM for later use.
(§4) 3. Procedures • 1) 40 μL of human liver microsome solution (0.25 mg/mL), 20 μL of probe substrate solution and 20 μL of test compound solution were precisely pipetted into a 96-well plate and pre-incubated for 5 min under a water bath at 37° C. • 2) After 5 min of pre-incubation, the mixture was taken out, 20 μL of 5 mM NADPH solution was added to initiate the reaction, and the resulting mixture was incubated for 30 min under a water bath at 37° C. […]
(§5) The values were calculated by Graphpad Prism to obtain the IC50 values for the inhibition of drugs on CYP1A2 phenacetin, CYP2C19 (S)-mephenytoin and CYP3A4M midazolam sites of metabolism in human liver microsomes, as shown in Table 7.
Background: Liver microsomes are a subcellular fraction often used to study metabolism.

Data set [3] addresses CYP2C19 (Homo sapiens (Human), UniProt P33261). Nature of the data set: Inhibition of human liver microsome CYP450 enzyme, CYP2C19 (S)-mephenytoin site. It is filed as in vitro ADME. The note with it: human liver microsomes, probe substrate (S)-mephenytoin. As for the experimental part: as §1, §2, §3, §4, §5
Data set [4] concerns the target CYP3A4M (Homo sapiens (Human), UniProt P08684). Nature of the data set: Inhibition of human liver microsome CYP450 enzyme, CYP3A4M midazolam site. The data set is classed as in vitro ADME. The note with it: human liver microsomes, probe substrate midazolam. The method, then:
as §1, §2, §3, §4, §5

This note sets out measurements from patent US20230322756A1, “FUSED IMIDAZOLE DERIVATIVE, PREPARATION METHOD THEREFOR, AND MEDICAL USE THEREOF” (JIANGSU HENGRUI MEDICINE CO., LTD., priority 2020, published 2023).

pIC50: −log10 of the molar value.

Chain of CYP3A4M (P08684 whole entry): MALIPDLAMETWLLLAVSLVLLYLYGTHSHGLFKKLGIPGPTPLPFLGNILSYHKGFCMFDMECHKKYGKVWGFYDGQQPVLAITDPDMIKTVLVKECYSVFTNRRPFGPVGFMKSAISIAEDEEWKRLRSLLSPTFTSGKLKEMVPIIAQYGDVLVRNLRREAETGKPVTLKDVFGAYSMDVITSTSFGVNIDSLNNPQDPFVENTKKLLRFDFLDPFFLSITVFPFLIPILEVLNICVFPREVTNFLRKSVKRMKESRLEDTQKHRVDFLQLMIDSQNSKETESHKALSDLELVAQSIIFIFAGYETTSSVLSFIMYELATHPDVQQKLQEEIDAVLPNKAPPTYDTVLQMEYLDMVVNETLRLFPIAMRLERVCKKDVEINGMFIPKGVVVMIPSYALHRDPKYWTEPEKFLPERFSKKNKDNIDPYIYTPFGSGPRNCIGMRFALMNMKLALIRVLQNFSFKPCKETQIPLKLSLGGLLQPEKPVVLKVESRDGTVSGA
Chain of hERG potassium channel (Q12809 whole entry): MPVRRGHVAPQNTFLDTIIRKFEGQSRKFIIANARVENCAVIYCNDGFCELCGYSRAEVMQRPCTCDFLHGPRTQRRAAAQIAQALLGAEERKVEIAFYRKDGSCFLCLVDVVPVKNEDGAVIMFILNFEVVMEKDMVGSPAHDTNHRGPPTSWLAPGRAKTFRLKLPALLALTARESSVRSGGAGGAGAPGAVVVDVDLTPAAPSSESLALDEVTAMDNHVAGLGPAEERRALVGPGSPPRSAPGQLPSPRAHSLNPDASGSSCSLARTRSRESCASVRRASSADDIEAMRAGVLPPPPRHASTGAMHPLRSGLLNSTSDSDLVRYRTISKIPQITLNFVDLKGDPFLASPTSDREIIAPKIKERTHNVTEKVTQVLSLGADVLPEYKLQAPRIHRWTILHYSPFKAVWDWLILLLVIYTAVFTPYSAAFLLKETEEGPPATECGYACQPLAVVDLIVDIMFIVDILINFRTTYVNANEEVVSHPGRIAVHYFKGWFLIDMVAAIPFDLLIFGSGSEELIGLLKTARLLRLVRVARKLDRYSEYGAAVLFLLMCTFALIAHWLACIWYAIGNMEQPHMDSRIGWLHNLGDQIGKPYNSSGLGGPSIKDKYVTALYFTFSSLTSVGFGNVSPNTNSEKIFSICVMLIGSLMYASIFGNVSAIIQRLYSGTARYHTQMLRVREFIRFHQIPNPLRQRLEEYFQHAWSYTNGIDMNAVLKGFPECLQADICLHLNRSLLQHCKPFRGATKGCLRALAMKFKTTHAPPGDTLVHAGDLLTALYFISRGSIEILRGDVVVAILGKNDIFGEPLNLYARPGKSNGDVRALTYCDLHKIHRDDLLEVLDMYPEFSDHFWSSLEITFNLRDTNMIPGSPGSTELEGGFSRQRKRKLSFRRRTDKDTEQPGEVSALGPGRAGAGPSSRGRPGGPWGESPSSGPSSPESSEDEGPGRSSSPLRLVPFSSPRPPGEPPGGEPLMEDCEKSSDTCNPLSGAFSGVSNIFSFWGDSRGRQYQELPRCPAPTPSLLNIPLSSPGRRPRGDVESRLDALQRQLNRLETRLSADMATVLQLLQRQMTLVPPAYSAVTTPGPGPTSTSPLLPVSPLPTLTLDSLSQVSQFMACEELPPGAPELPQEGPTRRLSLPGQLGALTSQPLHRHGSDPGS
Chain of CYP2C19 (P33261 whole entry): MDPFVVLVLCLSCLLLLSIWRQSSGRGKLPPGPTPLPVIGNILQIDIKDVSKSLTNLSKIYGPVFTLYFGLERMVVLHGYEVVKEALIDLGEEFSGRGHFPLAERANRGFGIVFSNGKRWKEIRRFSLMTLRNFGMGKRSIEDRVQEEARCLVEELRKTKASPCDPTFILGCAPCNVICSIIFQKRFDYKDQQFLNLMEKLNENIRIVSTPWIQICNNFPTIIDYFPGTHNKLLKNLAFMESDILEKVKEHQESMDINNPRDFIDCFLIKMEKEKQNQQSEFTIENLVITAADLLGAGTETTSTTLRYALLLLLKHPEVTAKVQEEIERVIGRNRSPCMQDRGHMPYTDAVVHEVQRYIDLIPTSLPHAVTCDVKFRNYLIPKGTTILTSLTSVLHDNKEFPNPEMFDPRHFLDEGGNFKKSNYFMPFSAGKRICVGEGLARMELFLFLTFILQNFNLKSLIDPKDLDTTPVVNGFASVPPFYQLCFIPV
Chain of CYP1A2 (P05177 whole entry): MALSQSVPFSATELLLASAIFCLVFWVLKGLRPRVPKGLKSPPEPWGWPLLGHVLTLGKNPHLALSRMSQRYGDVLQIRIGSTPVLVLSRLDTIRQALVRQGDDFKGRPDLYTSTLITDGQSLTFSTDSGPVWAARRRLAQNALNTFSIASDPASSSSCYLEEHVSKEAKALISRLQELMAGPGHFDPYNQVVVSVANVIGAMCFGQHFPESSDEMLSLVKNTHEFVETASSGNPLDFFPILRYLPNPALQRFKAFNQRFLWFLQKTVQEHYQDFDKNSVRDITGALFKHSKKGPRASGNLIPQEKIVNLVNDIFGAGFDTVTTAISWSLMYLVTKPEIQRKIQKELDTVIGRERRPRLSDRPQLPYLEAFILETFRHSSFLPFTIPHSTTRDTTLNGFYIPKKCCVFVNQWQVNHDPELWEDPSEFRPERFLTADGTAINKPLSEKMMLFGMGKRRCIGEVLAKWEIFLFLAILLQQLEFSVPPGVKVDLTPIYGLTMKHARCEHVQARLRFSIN

For the compound `O=C(O)c1ccc2nc(CN3CCC(c4cccc5c4O[C@@H](c4ccc(Cl)cc4F)CO5)CC3)n(C[C@@H]3CCO3)c2n1` [Example 5, 2-((4-((S)-3-(4-Chloro-2-fluorophenyl)-2,3-dihydrobenzo[b][1,4]dioxan-5-yl)piperidin-1-yl)methyl)-3-((S)-oxetan-2-ylmethyl)-3H-imidazo[4,5-b]pyridine-5-carboxylic acid], in data set [1], the pIC50 – broadly, −log10 of the IC50, conventionally taken in molar units – was 4.59. Besides, the IC50 in data set [2], in data set [3] and in data set [4] was > 30 µM each time.

As to `O=C(O)c1ccc2nc(CN3CCC(c4cccc5c4O[C@@H](c4ccc(Cl)cc4F)CO5)CC3)n(C[C@@H]3CCO3)c2c1` [Example 4, 2-((4-((S)-3-(4-Chloro-2-fluorophenyl)-2,3-dihydrobenzo[b][1,4]dioxan-5-yl)piperidin-1-yl)methyl)-1-(((S)-oxetan-2-yl)methyl)-1H-benzo[d]imidazole-6-carboxylic acid], the negative logarithm of the IC50 (pIC50) in data set [1] is 5.00. Further, the concentration for half-maximal inhibition (IC50) in data set [2], in data set [3] and in data set [4] was > 30 µM each time.

`C[C@]1(c2ccc(Cl)cc2F)Oc2cccc(C3CCN(Cc4nc5ccc(C(=O)O)cc5n4C[C@@H]4CCO4)CC3)c2O1` [Positive compound 1, reference compound]: the pIC50 in data set [1] is 5.34. The IC50 (commonly the concentration needed to halve the response being measured) in data set [2] came out at 12.5 µM; in data set [3] it was 7.4 µM; in data set [4], 25.5 µM.
